Results from patent US8217000B2, “Method for elevating prolactin in mammals” (Cara Therapeutics, Inc., priority 2006, dated 2012).
Where a name gives a salt, the structure may show the parent alone. Non-standard residues stand in square brackets, D forms with d. Residues, ends and D or L forms follow the SMILES beside them. *: point of attachment. NH(4-picolyl) = c1cc(CN*)ccn1; dNle = CCCC[C@@H](N)C(=O)O

Test: Plasma pharmacokinetics of CR665 after single IV infusion in human subjects
Conditions: for AUC(0-inf) / clearance / Cmax / MRT / Vd / half-life / Tmax / AUC(0-t): male, human, plasma, iv; for AUC(0-inf): AUC0-∞; for clearance: CL; for MRT: MRTint; for half-life: t1/2, males; for Tmax: median; for AUC(0-t): AUC0-t; for MRTint, geometric least squares mean: Parts A & B
Protocol: This clinical study was conducted as a double blind, placebo controlled, ascending single intravenous (IV) dose, sequential group study. This study was double blind and placebo controlled in order to avoid bias in the collection and evaluation of data during its conduct. […] In each group, subjects received CR665 or placebo. Doses were administered as a single constant rate IV infusion over 1 hour (part A) or 5 minutes (part B) on the morning of Day 1. Doses were administered in an escalating manner following satisfactory review of the safety data and pharmacokinetic data from the lower dose levels. There was a minimum of 6 days between dose escalations to allow sufficient time for an adequate safety review.
Plasma and urine samples for the analysis of CR665 and N oxide metabolite were prepared by solid phase extraction. The centrifuged eluates were quantified by liquid chromatography with tandem mass spectrometric detection (LC MS/MS). The lower limit of quantification was 1 ng/mL.
For pharmacokinetic assessments, blood samples (1×3 mL) were taken from the contralateral forearm vein(s) at the following times: Pre-dose, 15 minutes, 30 minutes, 45 minutes, 1 hour (immediately prior to the end of infusion), 1 hour 5 minutes, 1 hour 10 minutes, 1 hour 15 minutes, 1.5, 2, 2.5, 3, 4, 6, 8, 12, 16, 24, 36 and 48 hours after the start of the infusion). An indwelling cannula (Venflon®; BOC Ohmeda AB, Sweden) was used for all blood collection pre-dose and up to at least 12 hours after the start of the infusion. Otherwise, samples were collected using venipuncture. Blood samples were collected into pre-chilled 3 mL K3EDTA Vacutainer™ tubes (Becton Dickinson UK, Ltd., Oxford) and, after mixing, were placed in a cool box containing crushed ice/water. The samples were centrifuged, within 30 minutes of collection, at 1500 g for 10 minutes at approximately 4° C. For each sample, the separated plasma was transferred into two 5 mL suitably labeled polypropylene tubes, and stored immediately at approximately −20° C. Plasma samples were analyzed for CR665 using liquid chromatography with tandem mass spectrometric detection.
The pharmacokinetic analysis was conducted using WinNonlin Enterprise Version 4.0.1.
Pharmacokinetic parameters were determined from the plasma and urine, concentrations of CR665 and the N-oxide metabolite using non compartmental procedures.
Dose and body weight normalized values (norm) were determined for AUC0-t, AUC0-∞, Cinf and Cmax. Body weight normalized values [norm] were determined for Vz, Vss, CL and CLR.
The pharmacokinetic analysis was conducted using model independent methods as implemented in WinNonlin software, based on plasma concentrations of CR665 from those subjects who have received CR665 and have evaluable plasma concentration-time profiles.
The following plasma pharmacokinetic parameters were determined for CR665: • Cmax Maximum plasma concentration • tmax Time of maximum plasma concentration • t1/2z Terminal half-life=ln(2)/λz • AUC0-1 Area under the plasma concentration-time curve from time zero to time t (time of last quantifiable plasma concentration) • AUCinf Area under the plasma concentration-time curve from time zero to infinity calculated as [AUC0-t+(Clast/λz)] where Clast is the estimated concentration at the last quantifiable concentration curve. • λz Terminal-phase rate constant, also known as Kel • CL Total body clearance=Dose/AUCinf • Vz Volume of distribution based on terminal phase calculated as Vz/F=Dose/λz*AUCinf
Individual elapsed sampling times were used in the pharmacokinetic analysis. Cmax and tmax were obtained directly from the experimental observations. For the purpose of calculating AUC0-t, when two consecutive plasma concentrations below the lower limit of quantification (LLOQ) were encountered after tmax, all subsequent values were excluded from the analysis.

[1] = 0.06 mg/kg, males, 5-minute IV infusion, geometric mean
[2] = 0.06 mg/kg, males, 1 hour IV infusion, geometric mean
[3] = 0.09 mg/kg, males, 5-minute IV infusion, geometric mean
[4] = 0.12 mg/kg, males, 1 hour IV infusion, geometric mean
[5] = 0.24 mg/kg, males, 1 hour IV infusion, geometric mean
[6] = 0.36 mg/kg, males, 1 hour IV infusion, geometric mean
[7] = 0.42 mg/kg, males, 1 hour IV infusion, geometric mean
[8] = 0.48 mg/kg, males, 1 hour IV infusion, geometric mean
[9] = males, all doses, 5-minute infusion

For `CCCC[C@@H](NC(=O)[C@@H](Cc1ccccc1)NC(=O)[C@H](N)Cc1ccccc1)C(=O)N[C@H](CCCNC(=N)N)C(=O)NCc1ccncc1` [CR665, D-phenylalanyl-D-phenylalanyl-D-norleucyl-N-(4-pyridinylmethyl)-D-argininamide, acetate salt] (H-[dF][dF][dNle][dR]-{NH(4-picolyl)}), the AUC(0-inf) [1] was 142 ng·h/mL, the AUC(0-inf) [2] was 132 ng·h/mL and the clearance [1] was 553 mL/min. For the same molecule, the clearance [2] was 564 mL/min, the Cmax [1] was 624 ng/mL and the Cmax [2] was 119 ng/mL. For the same molecule, the MRT [1] was 30.1 min, the MRT [2] was 33.8 min and the Vd (0.06 mg/kg, Vss, males, 0.06 mg/kg, 5-minute IV infusion, geometric mean) was 16.6 L. The Vd (0.06 mg/kg, Vss, males, 0.06 mg/kg, 1 hour IV infusion, geometric mean) was 19 L, the Vd (0.06 mg/kg, Vz, males, 5-minute IV infusion, geometric mean) was 48 L and the Vd (0.06 mg/kg, Vz, males, 1 hour IV infusion, geometric mean) was 35.5 L. For the same molecule, the half-life (0.06 mg/kg, 5-minute IV infusion, geometric mean) was 60 min, the half-life (0.06 mg/kg, 1 hour IV infusion, geometric mean) was 43.7 min and the Tmax (0.06 mg/kg, males, 5-minute IV infusion) was 5 min. For the same molecule, the Tmax (0.06 mg/kg, males, 1 hour IV infusion) was 52.5 min, the AUC(0-t) [3] was 209 ng·h/mL and the AUC(0-inf) [3] was 213 ng·h/mL. For the same molecule, the clearance [3] was 575 mL/min, the Cmax [3] was 783 ng/mL and the MRT [3] was 32.2 min. It also gave a Vd (0.09 mg/kg, Vss, males, 0.09 mg/kg, 5-minute IV infusion, geometric mean) of 18.5 L, a Vd (0.09 mg/kg, Vz, males, 5-minute IV infusion, geometric mean) of 56.7 L and a half-life (0.09 mg/kg, 5-minute IV infusion, geometric mean) of 68.4 min. It also gave a Tmax (0.09 mg/kg, males, 5-minute IV infusion) of 5 min, an AUC(0-t) [4] of 267 ng·h/mL and an AUC(0-inf) [4] of 270 ng·h/mL. It also gave a clearance [4] of 533 mL/min, a Cmax [4] of 231 ng/mL and an MRT [4] of 43.4 min. The Vd (0.12 mg/kg, Vss, males, 0.12 mg/kg, 1 hour IV infusion, geometric mean) was 23.1 L, the Vd (0.12 mg/kg, Vz, males, 1 hour IV infusion, geometric mean) was 75.9 L and the half-life (0.12 mg/kg, 1 hour IV infusion, geometric mean) was 99 min. For the same molecule, the Tmax (0.12 mg/kg, males, 1 hour IV infusion) was 45 min, the AUC(0-t) [5] was 474 ng·h/mL and the AUC(0-inf) [5] was 478 ng·h/mL. The clearance [5] was 629 mL/min, the Cmax [5] was 431 ng/mL and the MRT [5] was 36.8 min. The Vd (0.24 mg/kg, Vss, males, 0.24 mg/kg, 1 hour IV infusion, geometric mean) was 23.2 L, the Vd (0.24 mg/kg, Vz, males, 1 hour IV infusion, geometric mean) was 74.6 L and the half-life (0.24 mg/kg, 1 hour IV infusion, geometric mean) was 82.2 min. The Tmax (0.24 mg/kg, males, 1 hour IV infusion) was 60 min, the AUC(0-t) [6] was 808 ng·h/mL and the AUC(0-inf) [6] was 812 ng·h/mL. It also gave a clearance [6] of 569 mL/min, a Cmax [6] of 779 ng/mL and an MRT [6] of 37.4 min. For the same molecule, the Vd (0.36 mg/kg, Vss, males, 0.36 mg/kg, 1 hour IV infusion, geometric mean) was 21.2 L, the Vd (0.36 mg/kg, Vz, males, 1 hour IV infusion, geometric mean) was 80.6 L and the half-life (0.36 mg/kg, 1 hour IV infusion, geometric mean) was 98.4 min. For the same molecule, the Tmax (0.36 mg/kg, males, 1 hour IV infusion) was 60 min, the AUC(0-t) [7] was 1080 ng·h/mL and the AUC(0-inf) [7] was 1080 ng·h/mL. For the same molecule, the clearance [7] was 504 mL/min, the Cmax [7] was 943 ng/mL and the MRT [7] was 37.1 min. The Vd (0.42 mg/kg, Vss, males, 0.42 mg/kg, 1 hour IV infusion, geometric mean) was 18.7 L, the Vd (0.42 mg/kg, Vz, males, 1 hour IV infusion, geometric mean) was 77.9 L and the half-life (0.42 mg/kg, 1 hour IV infusion, geometric mean) was 107 min. It also gave a Tmax (0.42 mg/kg, males, 1 hour IV infusion) of 60 min, an AUC(0-t) [8] of 1120 ng·h/mL and an AUC(0-inf) [8] of 1120 ng·h/mL. It also gave a clearance [8] of 576 mL/min, a Cmax [8] of 982 ng/mL and an MRT [8] of 38.9 min. The Vd (0.48 mg/kg, Vss, males, 0.48 mg/kg, 1 hour IV infusion, geometric mean) was 22.4 L, the Vd (0.48 mg/kg, Vz, males, 1 hour IV infusion, geometric mean) was 93.3 L and the half-life (0.48 mg/kg, 1 hour IV infusion, geometric mean) was 112 min. For the same molecule, the Tmax (0.48 mg/kg, males, 1 hour IV infusion) was 52.5 min, the “AUC0-t (norm), ratio of geometric least squares means 5-minute:1-hour” value (males) was 1.02 and the “AUC0-∞ (norm), ratio of geometric least squares means 5-minute:1-hour” value (males) was 1.04. For the same molecule, the “CL, ratio of geometric least squares means 5-minute:1-hour” value (males) was 0.964, the “Cmax (norm), ratio of geometric least squares means 5-minute:1-hour” value (males) was 4.49 and the “Cmax, fold higher for the 5-minute compared to the 1-hour infusion” value (males) was “approximately 4.5 fold”. The “MRTint, ratio of geometric least squares means 5-minute:1-hour” value (males) was 0.923, the “Vss, ratio of geometric least squares means 5-minute:1-hour” value (males) was 0.900 and the “Vz, ratio of geometric least squares means 5-minute:1-hour” value (males) was 1.03. The “t1/2, ratio of geometric least squares means 5-minute:1-hour” value (males) was 1.02, the MRTint (males, 0.24 mg/kg, 1 hour IV infusion, geometric mean) was 36.8 min and the “MRTint, geometric least squares mean” value (males, 1-hour infusion) was 36.3 min. For the same molecule, the “MRTint, geometric least squares mean” value (males, 5-minute infusion) was 33.5 min, the “Pooled between-subject variability for AUC0-∞” value [9] was 15.3% and the “Pooled between-subject variability for Cmax” value [9] was 24.1%.
